Assay results published in patent US10660928B2, “Pharmaceutical composition containing combination extracts of Moutan Root Bark, Angelica Dahurica Root, bupleurum root or fractions thereof for prevention and treatment of neurodegenerative disorder” (UNIVERSITY-INDUSTRY COOPERATION GROUP OF KYUNG HEE …, priority 2014, dated 2020).

How the values were obtained:
[1] = tested on: BV2, the mouse microglial cell line; test: Cell survival rate (calcein) in normal microglial cells, cytotoxicity; type: cell-based; conditions: 1.0 μg/ml, 4 hours
Protocol: Particularly, BV2, the mouse microglial cell line, was inoculated in 1:1 DMEM (Dulbeco's Modified Eagle's Medium; Gibco, USA) supplemented with 10% FBS, followed by culture in a 37° C., 5% CO2/95% air (O2) incubator. Then, the cultured cells were transferred into a serum free medium at the density of 2.5×10^4 cells/well. The cells were treated with the Bupleurum Root 90% ethanol extract prepared in Example <1-3>, saikosaponin A, saikosaponin B2, saikosaponin B4, or saikosaponin D at the concentration of 1.0 μg/ml for 4 hours. The cells were collected and the cell survival rate was measured by using calcein. The survival rate of the cells that were increased or decreased compared with that of the normal control cells not-treated with the extract or its active component above and instead treated with DMSO was calculated and presented as percentage (%).

[2] = tested on: BV2 cells; test: MTT assay, LPS-induced inflammatory response; type: cell-based, mouse; conditions: BV2, treatment 1.0 μg/ml, inducer LPS 100 ng/ml
Protocol: Particularly, BV2 cells were cultured by the same manner as described in Experimental Example <3-1>. Then, the cultured cells were transferred into a serum free medium at the density of 1×10^5 cells/well. The cells were treated with the Bupleurum Root 90% ethanol extract prepared in Example <1-3>, saikosaponin A, saikosaponin B2, saikosaponin B4, or saikosaponin D at the concentration of 1.0 μg/ml, followed by culture for 4 hours. The cells were then treated with 100 ng/ml of lipopolysaccharide (LPS), followed by culture for 20 hours to induce inflammatory response. MTT assay was performed with the cells induced with inflammatory response by the same manner as described in Experimental Example <1-2>. The damage of mitochondria complex 1 was confirmed to see how the damage level was either increased or decreased, compared with the normal control group treated with DMSO without the extract or its active component. In the meantime, the negative control group was treated with 100 ng/ml of LPS alone to induce inflammatory response and was not treated with the extract or its active component. Then, MTT assay was performed by the same manner as described above.

[3] = tested on: BV2 cells; test: Griess method, nitric oxide in medium of LPS-induced cells; type: cell-based, mouse; conditions: BV2, treatment 1.0 μg/ml, inducer LPS 100 ng/ml
Protocol: Particularly, BV2 cells were cultured by the same manner as described in Experimental Example <3-1>, and inflammatory response was induced. Then, 100 μl of the cell culture medium was obtained, to which 100 μl of Griess reagent comprising hydrochloric acid containing 5% sulfanilamide and 2% naphthylethylenediamine was added, followed by reaction in a dark room for 30 minutes. Upon completion of the reaction, OD540 was measured with an EISA microplate reader (Versamax, USA). The concentration of nitric oxide in the medium was calculated using the standard calibration curve of sodium nitrite. The normal control was not treated with the extract or the active component thereof but treated with DMSO. The negative control was treated with 100 ng/ml of LPS alone to induce inflammatory response but not treated with the extract or the active component. Then, the nitric oxide concentration reduction effect was investigated by the same manner as described above.
(§1) Particularly, BV2 cells were cultured by the same manner as described in Experimental Example <3-1>, and inflammatory response was induced. Then, 100 μl of the cell culture medium was obtained, to which 100 μl of Griess reagent comprising hydrochloric acid containing 5% sulfanilamide and 2% naphthylethylenediamine was added, followed by reaction in a dark room for 30 minutes. Upon completion of the reaction, OD540 was measured with an EISA microplate reader (Versamax, USA). The concentration of nitric oxide in the medium was calculated using the standard calibration curve of sodium nitrite. To measure the ROS concentration, the cells were treated with 1 μM DCF-DA and 0.05 μM bisbenzimide (Hoechst 33342), followed by staining at 37° C. for 1 hour. After the staining, the fluorescence intensity of DCF-DA was measured at 485 nm/535 nm, and the fluorescence intensity of bisbenzimide was measured at 335 nm/460 nm. Based on the ratio of DCF-DA/bisbenzimide, ROS was quantified. The amount of ROS, either increased or decreased, was compared with that of the normal control not treated with the extract but treated with DMSO, and the results were presented as %. The negative control was treated with 100 ng/ml of LPS alone to induce inflammatory response but not treated with the extract or the active component thereof. Then, the nitric oxide concentration reduction effect and the ROS concentration reduction effect were investigated by the same manner as described above.

[4] = tested on: inducible nitric oxide synthase (iNOS); test: RT-PCR of iNOS mRNA, LPS-induced cells; type: cell-based, mouse; conditions: BV2, treatment 1.0 μg/ml, LPS 100 ng/ml; negative control 100.00
Protocol: (§2) Particularly, BV2 cells were cultured by the same manner as described in Experimental Example <3-1>, and inflammatory response was induced. Then, RT-PCR was performed with the cells by the same manner as described in Experimental Example <1-4>, followed by quantitative analysis of the expression levels of iNOS, IL-6, and NF-kB p65/ReIA genes. The normal control was not treated with the extract of the invention or the active component thereof but treated with DMSO alone. The negative control was not treated with the extract or the active component but treated with 100 ng/ml of LPS alone to induce inflammatory response. Then, the expression of the inflammatory response marker gene was confirmed by the same manner as described above.

[5] = tested on: interleukin-6, (IL-6); test: RT-PCR of IL-6 mRNA, LPS-induced cells; type: cell-based, mouse; conditions: BV2, treatment 1.0 μg/ml, LPS 100 ng/ml; negative control 100.00
Protocol: as §2

[6] = tested on: NF-kB p65/ReIA; test: RT-PCR of NF-kB p65/ReIA mRNA, LPS-induced cells; type: cell-based, mouse; conditions: BV2, treatment 1.0 μg/ml, LPS 100 ng/ml; negative control 100.00
Protocol: as §2

[7] = tested on: BV2 cells; test: DCF-DA intracellular ROS, LPS-induced cells; type: cell-based, mouse; conditions: BV2, treatment 1.0 μg/ml, inducer LPS 100 ng/ml
Protocol: Particularly, BV2 cells were cultured by the same manner as described in Experimental Example <3-1>, and inflammatory response was induced. Then, the cells induced with inflammatory response were treated with 1 μM DCF-DA and 0.05 μM bisbenzimide (Hoechst 33342), followed by staining at 37° C. for 1 hour. After the staining, the fluorescence intensity of DCF-DA was measured at 485 nm/535 nm, and the fluorescence intensity of bisbenzimide was measured at 335 nm/460 nm. Based on the ratio of DCF-DA/bisbenzimide, ROS was quantified. The amount of ROS, either increased or decreased, was compared with that of the normal control not treated with the extract or the active component thereof but treated with DMSO, and the results were presented as %. The negative control was treated with 100 ng/ml of LPS alone to induce inflammatory response but not treated with the extract or the active component thereof. Then, the generation of ROS was investigated by the same manner as described above.
as §1

Row | Structure (SMILES) | Cell survival rate (% of control) [1] | MTT (% of control) [2] | NO [3] [µM] | iNOS mRNA (% of control) [4] | IL-6 mRNA (% of control) [5] | p65/ReIA mRNA (% of control) [6] | DCF-DA-ROS (% of control) [7]
1 | CO[C@@H]1C=C2[C@@H]3CC(C)(C)CC[C@]3(CO)[C@H](O)C[C@@]2(C)[C@]2(C)CC[C@H]3[C@](C)(CO)[C@@H](O[C@@H]4O[C@H](C)[C@H](O)[C@H](O[C@@H]5O[C@H](CO)[C@@H](O)[C@H](O)[C@H]5O)[C@H]4O)CC[C@]3(C)[C@@H]12 [saikosaponin B4, (3β,11α,16α)-16,23,28-Trihydroxy-11-methoxyolean-12-en-3-yl-6-deoxy-3-O-β-D-glucopyranosyl-β-D-galactopyranoside] | 97.99 ± 2.86 % of control | 87.12 ± 2.56 % of control | 17.2 ± 2.11 | 26.06 ± 3.27 % of control | 28.53 ± 1.92 % of control | 53.70 ± 4.72 % of control | 223.26 ± 2.86 % of control
2 | C[C@H]1O[C@@H](O[C@H]2CC[C@@]3(C)[C@@H](CC[C@]4(C)[C@@H]3C=C[C@]35OC[C@@]6(CCC(C)(C)C[C@H]63)[C@H](O)C[C@]54C)[C@]2(C)CO)[C@H](O)[C@@H](O[C@@H]2O[C@H](CO)[C@@H](O)[C@H](O)[C@H]2O)[C@H]1O [saikosaponin D, (3b,4a,16a)-13,28-Epoxy-16,23-dihydroxyolean-11-en-3-yl 6-deoxy-3-O-beta-D-glucopyranosyl beta-D-galactopyranoside] | 97.45 ± 3.99 % of control | 86.73 ± 1.25 % of control | 18.1 ± 2.93 | 21.23 ± 1.99 % of control | 26.58 ± 1.75 % of control | 49.80 ± 3.54 % of control | 218.61 ± 2.71 % of control
3 | C[C@H]1O[C@@H](O[C@H]2CC[C@@]3(C)[C@@H](CC[C@]4(C)[C@@H]3C=CC3=C5CC(C)(C)CC[C@]5(CO)[C@H](O)C[C@]34C)[C@]2(C)CO)[C@H](O)[C@@H](O[C@@H]2O[C@H](CO)[C@@H](O)[C@H](O)[C@H]2O)[C@H]1O [saikosaponin B2, (3b,4a,16a)-16,23,28-Trihydroxyoleana-11,13(18)-dien-3-yl-6-deoxy-3-O-beta-D-glucopyranosyl-beta-D-galactopyranoside] | 102.74 ± 8.55 % of control | 88.85 ± 6.48 % of control | 19 ± 2.68 | 18.11 ± 2.39 % of control | 29.67 ± 2.39 % of control | 50.18 ± 2.67 % of control | 214.22 ± 1.87 % of control
